Usually inhibition stands for the share of the control response that was lost under treatment. A word on the IC50: it is the concentration that inhibits the measured activity by half.

Active and inactive are the calls of the source. The calls are words filed in the database; no cut-off is given here.

The target in assay [1] is T1, Bifunctional epoxide hydrolase 2 (Homo sapiens) (UniProt P34913).
T1 sequence (whole entry): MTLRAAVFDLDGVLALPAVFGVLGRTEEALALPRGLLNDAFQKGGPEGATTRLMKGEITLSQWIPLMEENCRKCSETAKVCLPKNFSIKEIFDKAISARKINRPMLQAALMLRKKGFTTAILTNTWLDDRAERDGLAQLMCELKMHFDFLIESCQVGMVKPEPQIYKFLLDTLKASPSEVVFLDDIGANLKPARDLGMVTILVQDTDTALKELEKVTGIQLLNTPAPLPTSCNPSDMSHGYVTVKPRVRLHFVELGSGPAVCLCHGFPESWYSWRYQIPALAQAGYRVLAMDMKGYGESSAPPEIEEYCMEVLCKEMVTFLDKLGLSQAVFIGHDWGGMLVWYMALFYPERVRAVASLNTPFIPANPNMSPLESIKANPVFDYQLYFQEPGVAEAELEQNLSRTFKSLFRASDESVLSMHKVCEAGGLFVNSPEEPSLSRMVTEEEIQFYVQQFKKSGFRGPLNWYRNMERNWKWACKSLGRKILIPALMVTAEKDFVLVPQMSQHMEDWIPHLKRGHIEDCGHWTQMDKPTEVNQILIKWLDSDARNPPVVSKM
The assay is described as follows: Inhibition of human sEH at 10 uM relative to control.

Assay [2] deals with T2, Polyunsaturated fatty acid 5-lipoxygenase (Homo sapiens) (UniProt P09917).
T2 sequence (whole entry): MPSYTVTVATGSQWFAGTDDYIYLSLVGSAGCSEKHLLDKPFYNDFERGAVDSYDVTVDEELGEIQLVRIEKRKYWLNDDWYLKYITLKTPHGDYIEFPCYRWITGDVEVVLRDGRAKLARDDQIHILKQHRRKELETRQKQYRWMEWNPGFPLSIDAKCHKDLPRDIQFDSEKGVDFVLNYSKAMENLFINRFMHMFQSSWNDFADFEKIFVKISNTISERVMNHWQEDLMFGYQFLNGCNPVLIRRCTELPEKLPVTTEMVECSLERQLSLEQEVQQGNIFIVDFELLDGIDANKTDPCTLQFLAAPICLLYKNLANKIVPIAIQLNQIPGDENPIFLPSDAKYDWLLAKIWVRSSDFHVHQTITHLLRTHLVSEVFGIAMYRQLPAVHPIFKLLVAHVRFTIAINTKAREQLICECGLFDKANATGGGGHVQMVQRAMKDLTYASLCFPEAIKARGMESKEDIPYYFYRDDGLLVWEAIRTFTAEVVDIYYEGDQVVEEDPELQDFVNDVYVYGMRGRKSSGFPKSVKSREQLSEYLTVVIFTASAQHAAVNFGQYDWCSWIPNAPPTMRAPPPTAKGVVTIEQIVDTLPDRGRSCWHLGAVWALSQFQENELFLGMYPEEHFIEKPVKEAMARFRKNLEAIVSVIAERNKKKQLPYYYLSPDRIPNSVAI
The assay is described as follows: Inhibition of 5-LOX in human Neutrophil at 10 uM using arachidonic acid as substrate preincubated with compound for 15 mins followed by substrate and A23187 addition measured after 10 mins by RP-HPLC analysis relative to control. It counts as cell-based. The settings on record: time 25.0 min.

The target in assay [3] is T3, Prostaglandin E synthase (Homo sapiens) (UniProt O14684).
T3 sequence (whole entry): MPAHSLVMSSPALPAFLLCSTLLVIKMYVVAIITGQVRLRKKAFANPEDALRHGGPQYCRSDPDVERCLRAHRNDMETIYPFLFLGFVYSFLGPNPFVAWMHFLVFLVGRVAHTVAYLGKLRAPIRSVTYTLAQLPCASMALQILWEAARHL
In words: Inhibition of human mPGES-1 assessed as enzyme remaining activity at 10 uM relative to control.

For assay [4], the target named is T3, Prostaglandin E synthase (Homo sapiens). In words: Inhibition of human mPGES-1 at 10 uM relative to control.
The target in assay [5] is T1, Bifunctional epoxide hydrolase 2 (Homo sapiens). In words: Inhibition of human sEH assessed as enzyme remaining activity at 10 uM relative to control.
Assay [6] addresses T2, Polyunsaturated fatty acid 5-lipoxygenase (Homo sapiens). In words: Inhibition of 5-LOX in human Neutrophil assessed as enzyme remaining activity at 10 uM using arachidonic acid as substrate preincubated with compound for 15 mins followed by substrate and A23187 addition measured after 10 mins by RP-HPLC analysis relative to control. To be noted: time 25.0 min. The class given is cell-based.

Assay [7] has as its target T4, Polyunsaturated fatty acid 5-lipoxygenase (Homo sapiens, UniProt P09917).
T4 sequence (P09917 whole entry): T2 sequence (whole entry)
In words: Inhibition of human recombinant 5-LOX expressed in Escherichia coli BL21(DE3) using arachidonic acid as substrate preincubated with compound for 15 mins followed by substrate and CaCl2 addition measured after 10 mins by RP-HPLC analysis.

Assay [8] has as its target T2, Polyunsaturated fatty acid 5-lipoxygenase (Homo sapiens). In words: Inhibition of human recombinant 5-LOX expressed in Escherichia coli BL21(DE3) assessed as enzyme remaining activity at 10 uM using arachidonic acid as substrate preincubated with compound for 15 mins followed by substrate and CaCl2 addition measured after 10 mins by RP-HPLC analysis relative to control. To be noted: time 25.0 min.

Assay [9] has the same target. The assay is described as follows: Inhibition of 5-LOX in human Neutrophil at 10 uM preincubated with compound for 15 mins followed by A23187 addition measured after 10 mins by RP-HPLC analysis relative to control. The settings on record: time 25.0 min. The class given is cell-based.
In assay [10] the target is T4, Polyunsaturated fatty acid 5-lipoxygenase. In words: Inhibition of 5-LOX in human Neutrophil using arachidonic acid as substrate preincubated with compound for 15 mins followed by substrate and A23187 addition measured after 10 mins by RP-HPLC analysis. It counts as cell-based.
Assay [11] can be described thus: Antioxidant activity assessed as DPPH radical scavenging activity at 1 uM incubated for 30 min by DPPH assay. It counts as functional. Background: The DPPH test is a chemical assay of radical scavenging.
The test system of assay [12] is Neutrophil. In words: Inhibition of ROS production in PMA-induced human Neutrophil cells at 1 uM incubated for 10 mins by DCFH-DA dye based fluorometric assay. The class given is functional, cell-based.
Assay [13] is described as follows: Antioxidant activity assessed as DPPH radical scavenging activity at 10 uM incubated for 30 min by DPPH assay. It counts as functional.
In assay [14] the target is T2, Polyunsaturated fatty acid 5-lipoxygenase (Homo sapiens). In words: Inhibition of 5-LOX in human Neutrophil assessed as enzyme remaining activity at 10 uM preincubated with compound for 15 mins followed by A23187 addition measured after 10 mins by RP-HPLC analysis relative to control. To be noted: time 25.0 min. The class given is cell-based.
In assay [15] the test system is Neutrophil. The assay is described as follows: Inhibition of ROS production in PMA-induced human Neutrophil cells at 10 uM incubated for 10 mins by DCFH-DA dye based fluorometric assay. The class given is functional, cell-based.
Assay [16] addresses T2, Polyunsaturated fatty acid 5-lipoxygenase (Homo sapiens). The assay is described as follows: Inhibition of 5-LOX in human Neutrophil assessed as enzyme remaining activity at 30 nM using arachidonic acid as substrate preincubated with compound for 15 mins followed by substrate and A23187 addition measured after 10 mins by RP-HPLC analysis relative to control. The settings on record: time 25.0 min. The class given is cell-based.

For assay [17] the target is unchanged. The assay is described as follows: Inhibition of 5-LOX in human Neutrophil assessed as enzyme remaining activity at 30 nM preincubated with compound for 15 mins followed by A23187 addition measured after 10 mins by RP-HPLC analysis relative to control. It counts as cell-based. The settings on record: time 25.0 min.

Regarding `COC(=O)c1ccc(NCc2cc(O)c3ccccc3c2O)cc1`, the inhibition was over 35% in assay [1], over 50% in assay [2], under 40% in assay [4] and over 50% in assay [9]. For the same compound, the Activity in assay [3] came out at 50.4%; in assay [5] it was 84.4%; in [6], 1.9%; in assay [8], 6.1%; in [14], 3.3%. The IC50 in assay [7] worked out at 1100 nM; in assay [10], 1000 nM. Further, the outcome in [11] was inactive. For the same compound, in assay [12], the inhibition entry is “inactive”. In addition, in assay [13], the result was Active. The inhibition result in assay [15] is “Active”.

`CC(C)c1ccc2c(c1)c(SC(C)(C)C)c(CC(C)(C)C(=O)O)n2Cc1ccc(Cl)cc1`: the Activity in assay [3] was 45.8%; in [16], 7.8%; in [17] it was 1.5%.

(Values after ChEMBL document CHEMBL5528002, “Identification of selective 5-LOX and FLAP inhibitors as novel anti-inflammatory agents by ligand-based virtual screening” (Eur J Med Chem, 2024).)
